Measurements: US20120270237A9, “METHODS FOR THE IDENTIFICATION OF KINASE INTERACTING MOLECULES AND FOR THE PURIFICATION OF KINASE PROTEINS” (Cellzone AG, priority 2009, published 2012)

Tests used:
Assay in all cases: Kinobeads competition binding, HL60 cell lysate
Parameters in all cases: endogenous in cells
Conditions in all cases: 10 μM free compound
JAK2 = JAK2 (Homo sapiens, UniProt O60674)
Description: (§1) To one aliquot of cell lysate 10 μM of the free compound (FIG. 3, CZC31326) was added and allowed to bind to proteins in the lysate. Then the affinity matrix with the immobilized compound (Example 1) was added to capture proteins that were not interacting with the previously added free compound. Beads were separated from the lysate and bead bound proteins were eluted in SDS sample buffer and subsequently separated by SDS-Polyacrylamide gel electrophoresis (FIG. 4). Suitable gel bands were cut out and subjected to in-gel proteolytic digestion with trypsin. The second lysate aliquot was processed identically, however no free compound was added (DMSO solvent control). Peptides originating from samples 1 and 2 were labeled with iTRAQ reagents (iTRAQ 114 and iTRAQ 117) and the combined samples were analyzed with a nano-flow liquid chromatography system coupled online to a tandem mass spectrometer (LC-MS/MS) experiment followed by iTRAQ reporter ion quantification in the MS/MS spectra (Ross et al., 2004. Mol. Cell. Proteomics 3(12):1154-1169). Further experimental protocols can be found in WO2006/134056 and a previous publication (Bantscheff et al., 2007. Nature Biotechnology 25, 1035-1044). Sepharose-beads with the immobilized compound (100 μl beads per pull-down experiment) were equilibrated in lysis buffer and incubated with a cell lysate sample containing 50 mg of protein on an end-over-end shaker (Roto Shake Genie, Scientific Industries Inc.) for 2 hours at 4° C. Beads were collected, transferred to Mobicol-columns (MoBiTech 10055) and washed with 10 ml lysis buffer containing 0.4% NP40 detergent, followed by 5 ml lysis buffer containing 0.2% detergent. To elute bound proteins, 60 μl 2×SDS sample buffer was added to the column. The column was incubated for 30 minutes at 50° C. and the eluate was transferred to a siliconized microfuge tube by centrifugation. Proteins were then alkylated with 108 mM iodoacetamid. Proteins were then separated by SDS-Polyacrylamide electrophoresis (SDS-PAGE). The peptide extracts of samples treated with 10 μM of free compound (CZC31326) and the solvent control (0.5% DMSO) were treated with different variants of the isobaric tagging reagent (iTRAQ Reagents Multiplex Kit, part number 4352135, Applied Biosystems, Foster City, Calif., USA). The iTRAQ reagents are a set of multiplexed, amine-specific, stable isotope reagents that can label peptides on amino groups in up to four different biological samples enabling simultaneous identification and quantitation of peptides. The iTRAQ reagents were used according to instructions provided by the manufacturer. The samples were resuspended in 10 μl 50 mM TEAB solution, pH 8.5 and 10 μl ethanol were added. The iTRAQ reagent was dissolved in 120 μl ethanol and 10 μl of reagent solution were added to the sample. The labeling reaction was performed at room temperature for one hour on a horizontal shaker and stopped by adding 5 μl of 100 mM TEAB and 100 mM glycine in water. The two labeled sampled were then combined, dried in a vacuum centrifuge and resuspended in 10 μl of 0.1% formic acid in water. Relative protein quantitation was performed using peak areas of iTRAQ reporter ion signals essentially as described in an earlier publication (Bantscheff et al., 2007. Nature Biotechnology 25, 1035-1044).

GCK = molecular target: T1, GCK (Homo sapiens, UniProt Q12851)
T1 sequence (Q12851 1-820): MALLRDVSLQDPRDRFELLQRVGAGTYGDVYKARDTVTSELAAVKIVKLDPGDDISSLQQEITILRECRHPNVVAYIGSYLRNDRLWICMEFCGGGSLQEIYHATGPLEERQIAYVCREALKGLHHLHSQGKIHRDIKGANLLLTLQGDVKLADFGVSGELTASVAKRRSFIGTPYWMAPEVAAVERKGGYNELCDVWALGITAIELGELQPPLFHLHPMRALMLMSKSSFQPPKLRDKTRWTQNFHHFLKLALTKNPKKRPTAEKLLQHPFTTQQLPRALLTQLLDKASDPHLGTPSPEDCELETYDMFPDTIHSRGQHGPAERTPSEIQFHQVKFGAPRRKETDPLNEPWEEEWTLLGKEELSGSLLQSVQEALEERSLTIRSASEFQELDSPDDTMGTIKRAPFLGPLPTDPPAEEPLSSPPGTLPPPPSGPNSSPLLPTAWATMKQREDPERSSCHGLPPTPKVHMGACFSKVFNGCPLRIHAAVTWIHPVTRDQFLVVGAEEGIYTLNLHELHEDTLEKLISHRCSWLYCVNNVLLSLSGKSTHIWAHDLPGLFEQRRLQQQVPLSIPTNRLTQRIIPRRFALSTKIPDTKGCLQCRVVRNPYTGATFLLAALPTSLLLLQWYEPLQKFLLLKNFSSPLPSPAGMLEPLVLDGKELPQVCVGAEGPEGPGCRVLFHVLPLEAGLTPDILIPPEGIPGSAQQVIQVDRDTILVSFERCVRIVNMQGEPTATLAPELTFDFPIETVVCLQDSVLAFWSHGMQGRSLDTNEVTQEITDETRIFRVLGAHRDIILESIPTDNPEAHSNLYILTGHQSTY
Description: as §1

IRE1 = IRE1 (Homo sapiens, UniProt O75460)
Description: as §1

Erk2 = Erk2 (Homo sapiens, UniProt P28482)
Description: as §1

PKN2 = PKN2 (Homo sapiens, UniProt Q16513)
Description: as §1

YES = YES (Homo sapiens, UniProt P07947)
Description: as §1

RSK2 = RSK2 (Homo sapiens, UniProt P51812)
Description: as §1

JNK2 = JNK2 (Homo sapiens, UniProt P45984)
Description: as §1

Chain of JNK2 (P45984 whole entry): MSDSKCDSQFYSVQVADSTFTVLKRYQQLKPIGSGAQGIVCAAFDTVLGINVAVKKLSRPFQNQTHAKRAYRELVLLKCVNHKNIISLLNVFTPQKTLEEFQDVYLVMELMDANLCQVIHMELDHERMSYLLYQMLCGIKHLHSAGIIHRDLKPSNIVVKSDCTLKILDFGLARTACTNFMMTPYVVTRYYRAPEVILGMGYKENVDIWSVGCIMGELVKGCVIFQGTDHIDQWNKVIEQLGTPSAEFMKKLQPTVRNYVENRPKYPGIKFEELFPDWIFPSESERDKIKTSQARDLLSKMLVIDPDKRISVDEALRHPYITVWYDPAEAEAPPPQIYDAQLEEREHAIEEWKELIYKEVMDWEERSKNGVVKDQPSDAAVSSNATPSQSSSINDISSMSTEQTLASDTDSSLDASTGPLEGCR
Chain of PKN2 (Q16513 whole entry): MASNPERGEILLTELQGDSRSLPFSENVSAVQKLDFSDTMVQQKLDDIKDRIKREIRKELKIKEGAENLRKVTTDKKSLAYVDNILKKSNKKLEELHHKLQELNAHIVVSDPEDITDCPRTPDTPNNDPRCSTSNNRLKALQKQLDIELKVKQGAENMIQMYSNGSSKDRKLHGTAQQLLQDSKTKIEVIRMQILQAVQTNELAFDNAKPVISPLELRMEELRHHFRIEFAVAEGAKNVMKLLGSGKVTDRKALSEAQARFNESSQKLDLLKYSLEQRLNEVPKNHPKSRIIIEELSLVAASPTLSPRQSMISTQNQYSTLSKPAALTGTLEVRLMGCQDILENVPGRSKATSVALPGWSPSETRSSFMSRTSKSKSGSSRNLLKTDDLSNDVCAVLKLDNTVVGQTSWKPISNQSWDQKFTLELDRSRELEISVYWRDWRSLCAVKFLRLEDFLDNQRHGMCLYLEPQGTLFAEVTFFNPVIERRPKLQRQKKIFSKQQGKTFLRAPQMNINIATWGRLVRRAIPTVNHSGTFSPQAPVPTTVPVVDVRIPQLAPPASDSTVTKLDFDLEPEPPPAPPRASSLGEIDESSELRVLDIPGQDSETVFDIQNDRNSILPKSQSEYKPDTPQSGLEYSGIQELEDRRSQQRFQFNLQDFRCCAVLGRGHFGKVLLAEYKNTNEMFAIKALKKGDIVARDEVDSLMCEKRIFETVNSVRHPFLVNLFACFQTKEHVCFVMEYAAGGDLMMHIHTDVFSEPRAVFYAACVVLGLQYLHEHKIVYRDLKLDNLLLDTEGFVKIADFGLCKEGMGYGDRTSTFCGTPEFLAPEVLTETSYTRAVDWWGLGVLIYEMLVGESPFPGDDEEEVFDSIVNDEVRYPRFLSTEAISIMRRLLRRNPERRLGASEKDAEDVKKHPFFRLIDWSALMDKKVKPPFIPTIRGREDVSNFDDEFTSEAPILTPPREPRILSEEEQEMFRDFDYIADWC
Chain of Erk2 (P28482 whole entry): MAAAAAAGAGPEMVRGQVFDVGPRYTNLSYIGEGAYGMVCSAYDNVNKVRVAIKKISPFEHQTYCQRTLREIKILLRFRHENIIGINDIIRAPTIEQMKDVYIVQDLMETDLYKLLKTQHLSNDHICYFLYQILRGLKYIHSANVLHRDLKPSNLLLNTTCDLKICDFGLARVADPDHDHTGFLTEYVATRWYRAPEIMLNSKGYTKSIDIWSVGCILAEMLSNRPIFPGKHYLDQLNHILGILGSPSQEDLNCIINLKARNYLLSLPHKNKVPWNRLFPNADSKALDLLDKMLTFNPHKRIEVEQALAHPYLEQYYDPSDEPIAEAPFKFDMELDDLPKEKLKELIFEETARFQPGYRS
Chain of IRE1 (O75460 19-977): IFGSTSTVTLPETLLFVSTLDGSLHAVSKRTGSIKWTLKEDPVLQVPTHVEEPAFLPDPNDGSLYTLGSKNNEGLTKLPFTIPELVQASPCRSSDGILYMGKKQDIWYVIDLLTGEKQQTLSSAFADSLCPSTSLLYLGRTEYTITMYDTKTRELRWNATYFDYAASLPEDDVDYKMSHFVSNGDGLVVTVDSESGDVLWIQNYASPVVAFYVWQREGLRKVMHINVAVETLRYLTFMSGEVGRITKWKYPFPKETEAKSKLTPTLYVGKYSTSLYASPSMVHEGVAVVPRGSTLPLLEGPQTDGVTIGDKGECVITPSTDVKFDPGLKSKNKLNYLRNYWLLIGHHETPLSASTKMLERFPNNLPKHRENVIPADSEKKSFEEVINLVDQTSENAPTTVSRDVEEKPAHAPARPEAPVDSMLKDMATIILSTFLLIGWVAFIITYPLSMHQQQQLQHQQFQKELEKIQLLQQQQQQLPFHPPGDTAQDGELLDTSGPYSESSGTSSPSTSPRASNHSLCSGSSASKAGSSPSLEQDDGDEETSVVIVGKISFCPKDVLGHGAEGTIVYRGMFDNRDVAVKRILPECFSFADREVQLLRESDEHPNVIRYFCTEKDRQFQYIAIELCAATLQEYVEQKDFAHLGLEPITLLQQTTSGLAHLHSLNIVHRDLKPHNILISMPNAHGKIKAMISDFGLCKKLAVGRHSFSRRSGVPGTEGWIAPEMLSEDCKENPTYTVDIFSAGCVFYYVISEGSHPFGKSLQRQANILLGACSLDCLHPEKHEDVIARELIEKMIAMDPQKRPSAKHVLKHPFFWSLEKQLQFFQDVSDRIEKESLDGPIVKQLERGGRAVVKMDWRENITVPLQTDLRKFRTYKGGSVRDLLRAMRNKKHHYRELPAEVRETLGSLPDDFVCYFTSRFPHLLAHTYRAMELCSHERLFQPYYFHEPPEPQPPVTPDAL
Chain of YES (P07947 whole entry): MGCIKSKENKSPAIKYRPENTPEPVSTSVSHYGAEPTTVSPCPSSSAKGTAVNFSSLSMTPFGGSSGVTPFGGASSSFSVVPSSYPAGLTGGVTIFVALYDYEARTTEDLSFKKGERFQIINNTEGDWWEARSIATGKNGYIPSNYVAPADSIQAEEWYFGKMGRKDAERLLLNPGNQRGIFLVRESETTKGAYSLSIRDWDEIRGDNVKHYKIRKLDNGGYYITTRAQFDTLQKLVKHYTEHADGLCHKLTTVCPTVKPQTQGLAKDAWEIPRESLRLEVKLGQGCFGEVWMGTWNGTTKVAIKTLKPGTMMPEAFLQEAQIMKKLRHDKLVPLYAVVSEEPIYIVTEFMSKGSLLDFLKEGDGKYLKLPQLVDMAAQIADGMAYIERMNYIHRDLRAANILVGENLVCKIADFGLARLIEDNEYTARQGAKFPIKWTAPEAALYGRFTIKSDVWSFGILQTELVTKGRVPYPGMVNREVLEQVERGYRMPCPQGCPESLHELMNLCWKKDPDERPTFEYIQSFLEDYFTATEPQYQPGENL
Chain of JAK2 (O60674 whole entry): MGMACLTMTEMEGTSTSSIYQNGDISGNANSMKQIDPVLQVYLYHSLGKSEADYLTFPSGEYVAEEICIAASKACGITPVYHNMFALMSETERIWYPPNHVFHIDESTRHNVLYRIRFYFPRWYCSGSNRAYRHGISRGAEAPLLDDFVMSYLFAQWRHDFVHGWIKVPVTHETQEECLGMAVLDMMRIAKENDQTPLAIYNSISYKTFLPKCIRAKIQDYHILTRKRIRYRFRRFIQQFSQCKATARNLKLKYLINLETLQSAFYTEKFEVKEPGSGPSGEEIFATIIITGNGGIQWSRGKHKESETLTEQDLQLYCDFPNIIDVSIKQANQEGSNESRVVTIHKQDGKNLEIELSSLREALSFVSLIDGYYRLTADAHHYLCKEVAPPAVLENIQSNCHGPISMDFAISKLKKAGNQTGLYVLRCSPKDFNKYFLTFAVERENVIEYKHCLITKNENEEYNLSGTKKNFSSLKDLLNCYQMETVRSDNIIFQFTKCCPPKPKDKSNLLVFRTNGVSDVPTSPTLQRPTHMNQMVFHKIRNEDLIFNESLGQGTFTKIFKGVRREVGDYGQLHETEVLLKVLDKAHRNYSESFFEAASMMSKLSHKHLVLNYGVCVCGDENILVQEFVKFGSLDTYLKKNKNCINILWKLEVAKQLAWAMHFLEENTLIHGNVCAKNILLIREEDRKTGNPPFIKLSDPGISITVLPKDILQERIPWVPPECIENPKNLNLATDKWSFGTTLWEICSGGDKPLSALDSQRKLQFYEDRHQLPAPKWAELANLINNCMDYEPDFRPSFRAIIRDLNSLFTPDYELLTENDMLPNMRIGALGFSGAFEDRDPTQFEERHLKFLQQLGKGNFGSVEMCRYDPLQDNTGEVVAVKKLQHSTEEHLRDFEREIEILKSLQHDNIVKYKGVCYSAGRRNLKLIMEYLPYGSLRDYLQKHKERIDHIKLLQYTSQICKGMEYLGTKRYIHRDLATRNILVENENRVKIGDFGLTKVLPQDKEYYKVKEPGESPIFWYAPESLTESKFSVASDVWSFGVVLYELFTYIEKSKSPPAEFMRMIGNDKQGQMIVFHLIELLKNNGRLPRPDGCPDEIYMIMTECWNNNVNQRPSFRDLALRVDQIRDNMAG

Competition % (JAK2): 96.8% | inhibition at 10 µM (GCK): 96.5% | inhibition at 10 µM (IRE1): 95.1% | inhibition at 10 µM (Erk2): 75.8% | inhibition at 10 µM (PKN2): 93.9% | inhibition at 10 µM (YES): 91.1% | inhibition at 10 µM (RSK2): 96.7% | Competition % (JNK2): 87.8%
SMILES: CS(=O)(=O)Nc1ccccc1Nc1nc(Nc2cccc(OCCN)c2)ncc1Cl [CZC31326, N-(2-(2-(3-(2-aminoethoxy)phenylamino)-5-chloropyrimidin-4-ylamino)phenyl)methanesulfonamide]
